# Assay results published in paper PMC9483557, “Reisomerization of retinal represents a molecular switch mediating Na^+ uptake and release by a bacterial sodium-pumping rhodopsin” (The Journal of Biological Chemistry, 2022).
# Target: T1, IaNaR (Indibacter alkaliphilus, UniProt S2D3K4)
# T1 construct: gene A33Q_3728; C-terminal His tag, E. coli BL21, vector pKA001, DDM-solubilised, Ni-NTA purified, reconstituted in Egg-PC liposomes
# T1 sequence (S2D3K4 1-279): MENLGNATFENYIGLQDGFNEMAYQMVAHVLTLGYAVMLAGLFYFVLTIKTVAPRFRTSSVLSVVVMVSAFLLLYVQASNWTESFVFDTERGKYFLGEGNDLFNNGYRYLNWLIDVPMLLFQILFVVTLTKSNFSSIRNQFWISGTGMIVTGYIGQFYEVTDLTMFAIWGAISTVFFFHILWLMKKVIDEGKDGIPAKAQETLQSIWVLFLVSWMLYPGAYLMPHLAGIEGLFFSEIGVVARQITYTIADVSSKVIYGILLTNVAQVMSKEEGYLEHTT
# Assay: time-resolved cryo-Raman ([…] nm preresonance) and absorption spectroscopy
# Type: binding
# Conditions: covalent; protonated Schiff base to helix G lysine; dark state all-trans; humidified film, 268 K, pH 8.0, NaCl
structure (smiles),measurement,value
CC1=C(/C=C/C(C)=C/C=C/C(C)=C/C=O)C(C)(C)CCC1 [retinal],time-resolved cryo-Raman (785 nm preresonance) and absorption spectroscopy,the vibrational modes of the RSB chromophore were selectively observed due to the preresonance enhancement
